Data taken from patent publication US12440567B2, “Aqueous antibody formulation stabilized by antioxidants for parenteral administration” (AMGEN INC., priority 2007, dated 2025).

Tests used:
[1] = tested on: anti-streptavidin mAb (IgG2); experiment: SEC-HPLC aggregation of anti-streptavidin (IgG2) after UV-B exposure; type: physicochemical; conditions: 20 mM antioxidant; 1 mg/mL anti-streptavidin, 10 mM sodium acetate, 5% sorbitol, pH 5.00; 302 nm UV-B 24 hours
Experimental: (§1) The SEC-HPLC conditions were as follows: a G3000 TOSOH SWXL column was used and the flowrate was set at 0.5 mL/min. […] For both IgG1 and IgG2, the mobile phase was 80 mM sodium phosphate, 300 mM sodium perchlorate, 10% isopropanol, pH 7.2, and each sample was run for 45 minutes.
(§2) For FIG. 5, the anti-streptavidin formulation was prepared having the following characteristics: 1 mg/mL anti-streptavidin mAb (IgG2), 10 mM sodium acetate, 5% sorbitol, and pH 5.00. For FIG. 6, the Antibody A formulation was prepared having the following characteristics: 1 mg/mL Antibody A (IgG1), 10 mM sodium acetate, 9% sucrose, and pH 5.20.

EPO = experiment: SEC-HPLC aggregation/degradation of EPO after UV-B exposure; type: physicochemical, human; conditions: pH 6.90, 302 nm UV-B 24 hours
Experimental: For the examples below involving exposure to UVB radiation, each sample was exposed to UVB light (λ≈302 nm) for varying times, using a UVP 8W model UVLMS-38 lamp at 4° C. The formulations were then analyzed using size exclusion chromatography high pressure liquid chromatography (SEC-HPLC). Aggregation (measured via SEC-HPLC analysis) and binding (measured using CM5 gold sensor chips) were measured to determine the effect of the antioxidant on aggregation and bioactivity of the therapeutic protein. The SEC-HPLC conditions were as follows: a G3000 TOSOH SWXL column was used and the flowrate was set at 0.5 mL/min. […] FIG. 4 (EPO), FIG. 5 (anti-streptavidin), and FIG. 6 (Antibody A) show SEC-HPLC chromatograms of each proteins following exposure to 302 nm UV-B light for 24 hours. […] Each formulation was then exposed to 302 nm UV-B light for 24 hours. The protein formulation was then analyzed using SEC-HPLC.

EPO binding to D11 = experiment: Binding of EPO to D11 monoclonal antibody after UV-B exposure of the formulation; set-up: species or system human
Experimental: For the examples below involving exposure to UVB radiation, each sample was exposed to UVB light (λ≈302 nm) for varying times, using a UVP 8W model UVLMS-38 lamp at 4° C. The formulations were then analyzed using size exclusion chromatography high pressure liquid chromatography (SEC-HPLC). Aggregation (measured via SEC-HPLC analysis) and binding (measured using CM5 gold sensor chips) were measured to determine the effect of the antioxidant on aggregation and bioactivity of the therapeutic protein. The binding activity of therapeutic protein to a ligand (e.g. to an antibody or binding partner, or, in cases where the therapeutic was an antibody, binding activity to the specific target antigen or to protein A) was determined as follows. […] The therapeutic protein-binding ligand of interest was injected until the desired immobilization level was achieved (above 5000 response units). Three different therapeutic protein-binding ligands were measured—Antibody A's target antigen, Protein A, and D11 (an antibody that binds to erythropoietin). […] The remaining activated groups were blocked with 1.0 M ethanolamine-HCl, pH 8.5. A standard curve was prepared by using native forms of the therapeutic protein of interest. Native forms of the therapeutic protein were diluted in HBS-EP buffer (pH 7.4) to concentrations between 1 and 5 μg/mL, and then injected on the column, prepared as described above to obtain a standard curve. At the end of each sample run, regeneration buffer was used to wash away any bound therapeutic protein in preparation for subsequent injections. Various UV-stressed antibody formulations were also diluted in HBS-EP buffer (pH 7.4) to a concentration within the standard curve region, and injected to quantitate the loss of bioactivity to its respective ligand-binding partner. […] The protein was exposed to the same conditions as Antibody A and Antibody B for up to 24 hours.

Antibody A = experiment: Discoloration (yellowing) of Antibody A formulations after UV-B exposure; type: physicochemical; conditions: UV-B light 24 hours
Text: Discoloration can be assessed visually or by measurement of absorbance at a specific wavelength.
Proteins may also become yellow in color following exposure to UV light.
Pyridoxine is another water soluble B-vitamin (B6) which was studied as a possible antioxidant for preventing protein aggregation caused by UV-B exposure.

Antibody A (IgG1) = experiment: SEC-HPLC aggregation of Antibody A (IgG1) after UV-B exposure; type: physicochemical; conditions: 20 mM antioxidant; 1 mg/mL Antibody A, 10 mM sodium acetate, 9% sucrose, pH 5.20; 302 nm UV-B 24 hours
Experimental: as §1, §2

[2] = tested on: Antibody B binding to protein A; experiment: Binding of Antibody B to protein A after UV-B exposure of the formulation; conditions: 20 mM additive; pH 6.90 phosphate buffer; 0-24 hours UV-B
Experimental: For the examples below involving exposure to UVB radiation, each sample was exposed to UVB light (λ≈302 nm) for varying times, using a UVP 8W model UVLMS-38 lamp at 4° C. The formulations were then analyzed using size exclusion chromatography high pressure liquid chromatography (SEC-HPLC). Aggregation (measured via SEC-HPLC analysis) and binding (measured using CM5 gold sensor chips) were measured to determine the effect of the antioxidant on aggregation and bioactivity of the therapeutic protein.
The binding activity of therapeutic protein to a ligand (e.g. to an antibody or binding partner, or, in cases where the therapeutic was an antibody, binding activity to the specific target antigen or to protein A) was determined as follows. […] The therapeutic protein-binding ligand of interest was injected until the desired immobilization level was achieved (above 5000 response units). Three different therapeutic protein-binding ligands were measured—Antibody A's target antigen, Protein A, and D11 (an antibody that binds to erythropoietin). […] The remaining activated groups were blocked with 1.0 M ethanolamine-HCl, pH 8.5.
A standard curve was prepared by using native forms of the therapeutic protein of interest. Native forms of the therapeutic protein were diluted in HBS-EP buffer (pH 7.4) to concentrations between 1 and 5 μg/mL, and then injected on the column, prepared as described above to obtain a standard curve. At the end of each sample run, regeneration buffer was used to wash away any bound therapeutic protein in preparation for subsequent injections.
Various UV-stressed antibody formulations were also diluted in HBS-EP buffer (pH 7.4) to a concentration within the standard curve region, and injected to quantitate the loss of bioactivity to its respective ligand-binding partner.

COc1cc(/C=C/C(=O)O)ccc1O [ferulic acid]
amount of aggregate of anti-streptavidin (SEC-HPLC) [1]: dramatically reduced
amount of EPO dimer and aggregate caused by UV light (SEC-HPLC) (EPO; 0.1 mM antioxidant, 0.336 mg/mL EPO, 20 mM sodium phosphate): able to reduce the amount of EPO dimer and aggregate
prevention of EPO degradation compared with 10 mM methionine (SEC-HPLC) (EPO; 0.1 mM antioxidant, 0.336 mg/mL EPO): able to prevent EPO degradation more effectively than 10 mM methionine
amount of aggregate of EPO (SEC-HPLC) (EPO; 20 mM antioxidant, 1 mg/mL EPO, 25 mM sodium phosphate, 125 mM sodium chloride): dramatically reduced
EPO binding activity to D11 during UV-B exposure (EPO binding to D11; 0.1 mM antioxidant, UV-B up to 24 hours): able to protect the EPO from degradation and preserve its binding activity
binding of EPO to D11 mAb after UV light exposure (EPO binding to D11; 20 mM antioxidant, up to 24 hours UV): able to significantly preserve
yellowing of Antibody A formulation (Antibody A; 10 mM additive alone): no appreciable yellowing
yellowing of Antibody A formulation (Antibody A; 10 mM antioxidant in the presence of 10 mM methionine): no appreciable yellowing
amount of aggregate of Antibody A (SEC-HPLC) (Antibody A (IgG1)): dramatically reduced
binding of Antibody B to protein A after UV-B exposure [2]: prevented UV-B induced degradation
